“And” between values parts separate entries of the source, which are not always exact repeats. Equal entries are not always repeated.
Tests used:
[1] = tested on: HMG-CoA reductase; conditions: fed rats three hours following the administration; Bensch et al. 1978; cited from earlier work
[2] = tested on: serum cholesterol; conditions: acutely treated rat; Endo et al. 1976; cited from earlier work
[3] = tested on: serum sterol levels; conditions: Bensch et al. 1978, cited from earlier work
[4] = tested on: plasma cholesterol; test: Combination of compound (II) with cholestyramine in dogs, plasma cholesterol; assay type: in vivo, Male beagles
Protocol: Male beagles, ranging in weight from 7 to 14 kg. (average 11 kg.), were fed a semi-synthetic diet six weeks prior to the start of the experiment and serum cholesterol levels determined colorimetrically each week in order to obtain base-line values for each dog. At the start of the treatment, animals were divided into three treatment groups. Group A (4 dogs) received 25 mg./kg./day of compound (II) mixed in the diet. Group B (4 dogs) received 12 g./dog/day of cholestyramine mixed' in the diet. Group C (5 dogs) was the untreated control. Treatment was for four weeks, and plasma cholesterol was determined two times per week. After four weeks a combination of compound (II) and cholestyramine was given to dogs in Groups A and B mixed in the diet at 25 mg./kg. and 12 g./dog/day respectively for an additional four weeks. Cholesterol levels were detorminod two times per week during this period.

[5] = molecular target: T1, HMG-CoA reductase (Rattus norvegicus, UniProt P51639); conditions: reductase enzyme; no unit printed (molar concentration); read-out: ED50 in the inhibition test; cited from earlier work
T1 sequence (P51639 1-887): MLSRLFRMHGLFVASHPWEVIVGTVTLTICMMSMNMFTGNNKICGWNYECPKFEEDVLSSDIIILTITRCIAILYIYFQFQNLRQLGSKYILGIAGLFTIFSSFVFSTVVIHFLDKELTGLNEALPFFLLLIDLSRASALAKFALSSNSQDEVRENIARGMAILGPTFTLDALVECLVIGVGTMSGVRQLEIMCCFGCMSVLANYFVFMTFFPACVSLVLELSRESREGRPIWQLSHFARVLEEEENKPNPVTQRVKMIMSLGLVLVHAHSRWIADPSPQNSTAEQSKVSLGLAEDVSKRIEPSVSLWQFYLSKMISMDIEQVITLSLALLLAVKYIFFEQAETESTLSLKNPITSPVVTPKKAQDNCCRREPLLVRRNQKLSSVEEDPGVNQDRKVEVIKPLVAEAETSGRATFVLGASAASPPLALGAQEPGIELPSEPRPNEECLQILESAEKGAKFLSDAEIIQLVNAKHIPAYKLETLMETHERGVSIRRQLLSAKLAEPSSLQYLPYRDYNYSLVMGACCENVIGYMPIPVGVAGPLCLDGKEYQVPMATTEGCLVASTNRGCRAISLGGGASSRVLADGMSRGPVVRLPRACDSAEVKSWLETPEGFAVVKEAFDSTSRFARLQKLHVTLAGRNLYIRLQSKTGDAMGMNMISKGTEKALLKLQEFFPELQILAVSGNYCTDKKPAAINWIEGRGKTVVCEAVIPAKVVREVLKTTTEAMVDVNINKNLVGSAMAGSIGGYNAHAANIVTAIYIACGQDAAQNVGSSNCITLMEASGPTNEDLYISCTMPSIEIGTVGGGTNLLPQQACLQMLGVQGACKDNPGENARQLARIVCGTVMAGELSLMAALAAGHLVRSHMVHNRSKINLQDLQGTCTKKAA

[6] = Group A average (4 dogs), compound (II) 25 mg./kg./day mixed in the diet, 4 weeks
[7] = Group A, individual dogs, compound (II) 25 mg./kg./day mixed in the diet, 4 weeks

For `CCC(C)C(=O)OC1CCC=C2C=CC(C)C(CCC3CC(O)CC(=O)O3)C21` (centres unmarked) [compound (II), 1,2,3,7,8,8a-hexahydro-7-methyl-8-[2-(3,4,5,6-tetra-hydro-4-hydroxy-6-oxo-2H-pyran-2-yl]ethyl)-1-naphthyl 2-methyl butanoate], the HMG-CoA reductase [1] is given as “marked increase”, the serum cholesterol levels [2] is given as “reduced” and the “liver or liver microsomal cholesterol concentration” value [3] is given as “no change”. For the same molecule, the “effect on serum sterol levels” value ([3]; compared with fed or fasted controls) was “no effect”, the “reduction in plasma cholesterol level plateauing by four weeks” value ([4]; Fig. 1, Group A, 25 mg./kg./day of compound (II)) was 36 % of control and the “PLASMA CHOLESTEROL, 4 Weeks, % change from Start, average” value [4, 6] was -35.6%. The “PLASMA CHOLESTEROL, 4 Weeks, average” value [4, 6] was 82.5 mg/dL, the “PLASMA CHOLESTEROL, 4 Weeks” value [4, 7] was 76 mg./dl and 70 mg./dl and 92 mg./dl (2×) and the “PLASMA CHOLESTEROL, 4 Weeks, % change from Start” value [4, 7] was -36.7% and -30.7% and -40.4% and -34.3%. The “decrease of plasma cholesterol, average” value ([4]; four weeks single agent in the diet: compound (II) 25 mg./kg. (Group A), cholestyramine 12 g./dog/day (Group B)) was 35.6% and the IC50 [5] was roughly 10 nM.

Reference: patent EP0010299A1, “Pharmaceutical composition useful for the treatment of hypercholesteremia” (Merck & Co., Inc., priority 1978, dated 1980)
